Measurements from patent publication US5627181A, “6-membered nitrogen-containing heteroaryl-oxazolidinones” (Bayer Aktiengesellschaft, priority 1994, dated 1997).
≈ marks a conversion by molar mass, not a printed value.

Assays:
Assay type in all cases: cell-based
[1] = test system: E. coli Neumann; assay: MIC values, E. coli Neumann; conditions: Escherichia coli, 37° C., about 20 hours
Experimental: (§1) The minimum inhibitory concentrations (MIC) were determined by the series dilution method on Iso-Sensitest agar (Oxoid). A series of agar plates which contained concentrations of the active compound which decreased by two-fold dilution in each case were prepared for each test substance. The agar plates were inoculated with a Multipoint inoculator (Denley). Overnight cultures of the pathogens which had been diluted beforehand such that each inoculation point contained about 10^4 colony-forming particles were used for the inoculation. The inoculated agar plates were incubated at 37° C. and the germ growth was read off after about 20 hours. The MIC value (μg/ml) indicates the lowest concentration of active compound at which no growth was detectable with the naked eye.
(§2) The MIC values were determined with the aid of the microdilution method in BH medium. Each test substance was dissolved in the nutrient medium. A concentration series of the test substances was prepared in the microtiter plate by serial dilution. Overnight cultures of the pathogens which were diluted 1:250 beforehand in the nutrient medium were used for the inoculation. In each case 100 μl of inoculation solution were added to 100 μl of the diluted nutrient solutions containing the active compound.

[2] = test system: Staph. 48N; assay: MIC values, Staph. 48N; conditions: 37° C., about 20 hours
Experimental: as §1, §2

[3] = test system: Klebs. 57 USA; assay: MIC values, Klebs. 57 USA; conditions: 37° C., about 20 hours
Experimental: as §1, §2

[4] = test system: Staph 25701; assay: MIC values, Staph 25701; conditions: 37° C., about 20 hours
Experimental: as §1, §2

[5] = test system: Staph. 9TV; assay: MIC values, Staph. 9TV; conditions: 37° C., about 20 hours
Experimental: as §1, §2

[6] = test system: Staph. 133; assay: MIC values, Staph. 133; conditions: 37° C., about 20 hours
Experimental: as §1, §2

[7] = test system: Psdm. Bonn; assay: MIC values, Psdm. Bonn; conditions: 37° C., about 20 hours
Experimental: as §1, §2

MIC [1]	MIC [2]	MIC [3]	MIC [4]	MIC [5]	MIC [6]	MIC [7]	SMILES
> 64 µg/mL	2 µg/mL (≈ 6.07 µM)	> 64 µg/mL	1 µg/mL (≈ 3.04 µM)	1 µg/mL (≈ 3.04 µM)	4 µg/mL (≈ 12.1 µM)	> 64 µg/mL	CC(=O)NC[C@H]1CN(c2ccc(-c3ccc(F)cc3)cn2)C(=O)O1 [Example 47]
> 32 µg/mL	4 µg/mL (≈ 11.3 µM)	> 32 µg/mL	4 µg/mL (≈ 11.3 µM)	1 µg/mL (≈ 2.83 µM)	2 µg/mL (≈ 5.66 µM)	> 32 µg/mL	CC(=O)NC[C@H]1CN(c2ccc(-c3ccc(C(C)=O)cc3)cn2)C(=O)O1 [Example 41]
> 64 µg/mL	2 µg/mL (≈ 5.5 µM)	> 64 µg/mL	4 µg/mL (≈ 11 µM)	2 µg/mL (≈ 5.5 µM)	8 µg/mL (≈ 22 µM)	> 64 µg/mL	CC(=O)NC[C@H]1CN(c2ccc(-c3ccc(F)c(Cl)c3)cn2)C(=O)O1 [Example 46]
> 32 µg/mL	0.5 µg/mL (≈ 1.39 µM)	> 32 µg/mL	0.5 µg/mL (≈ 1.39 µM)	0.25 µg/mL (≈ 0.696 µM)	0.25 µg/mL (≈ 0.696 µM)	> 32 µg/mL	CC(=O)NC[C@H]1CN(c2ccc(-c3ccc(C(C)=O)s3)cn2)C(=O)O1 [Example 43]
> 64 µg/mL	2 µg/mL (≈ 5.61 µM)	> 64 µg/mL	2 µg/mL (≈ 5.61 µM)	1 µg/mL (≈ 2.81 µM)	4 µg/mL (≈ 11.2 µM)	> 64 µg/mL	CC(=O)NC[C@H]1CN(c2ccc(-c3cccc([N+](=O)[O-])c3)cn2)C(=O)O1 [Example 48]
> 32 µg/mL	1 µg/mL (≈ 2.95 µM)	> 32 µg/mL	1 µg/mL (≈ 2.95 µM)	0.5 µg/mL (≈ 1.47 µM)	1 µg/mL (≈ 2.95 µM)	> 32 µg/mL	CC(=O)NC[C@H]1CN(c2ccc(-c3ccc(C=O)cc3)cn2)C(=O)O1 [Example 40]
> 32 µg/mL	1 µg/mL (≈ 3.21 µM)	> 32 µg/mL	1 µg/mL (≈ 3.21 µM)	0.5 µg/mL (≈ 1.61 µM)	1 µg/mL (≈ 3.21 µM)	> 32 µg/mL	CC(=O)NC[C@H]1CN(c2ccc(-c3ccccc3)cn2)C(=O)O1 [Example 37]
> 32 µg/mL	4 µg/mL (≈ 11.8 µM)	> 32 µg/mL	8 µg/mL (≈ 23.6 µM)	2 µg/mL (≈ 5.89 µM)	4 µg/mL (≈ 11.8 µM)	> 32 µg/mL	CC(=O)NC[C@H]1CN(c2ccc(-c3ccccc3C=O)cn2)C(=O)O1 [Example 38]
> 32 µg/mL	4 µg/mL (≈ 12.3 µM)	> 32 µg/mL	4 µg/mL (≈ 12.3 µM)	1 µg/mL (≈ 3.07 µM)	4 µg/mL (≈ 12.3 µM)	> 32 µg/mL	CC(=O)NC[C@H]1CN(c2ccc(-c3ccc(C)cc3)cn2)C(=O)O1 [Example 36, (5S)-3-[5-(4-Methylphenyl)pyridin-2-yl]-5-acetyl-aminomethyl-oxazolidin-2-one]
> 64 µg/mL	4 µg/mL (≈ 11.3 µM)	> 64 µg/mL	4 µg/mL (≈ 11.3 µM)	4 µg/mL (≈ 11.3 µM)	4 µg/mL (≈ 11.3 µM)		CC(=O)NC[C@H]1CN(c2ccc(-c3cccc(C(C)=O)c3)cn2)C(=O)O1 [Example 42]
> 64 µg/mL	8 µg/mL (≈ 28 µM)	> 64 µg/mL	8 µg/mL (≈ 28 µM)	8 µg/mL (≈ 28 µM)	8 µg/mL (≈ 28 µM)		CC(=O)NC[C@H]1CN(c2ccc3ncccc3c2)C(=O)O1 [Example 29]
> 32 µg/mL	4 µg/mL (≈ 11.6 µM)	> 32 µg/mL	2 µg/mL (≈ 5.79 µM)	2 µg/mL (≈ 5.79 µM)	2 µg/mL (≈ 5.79 µM)	> 32 µg/mL	CC(=O)NC[C@H]1CN(c2ccc(-c3csc(C=O)c3)cn2)C(=O)O1 [Example 44]
> 32 µg/mL	0.5 µg/mL (≈ 1.47 µM)	> 32 µg/mL	0.5 µg/mL (≈ 1.47 µM)	0.125 µg/mL (≈ 0.368 µM)	0.25 µg/mL (≈ 0.737 µM)	> 32 µg/mL	CC(=O)NC[C@H]1CN(c2ccc(-c3cccc(C=O)c3)cn2)C(=O)O1 [Example 39]
> 32 µg/mL	2 µg/mL (≈ 5.33 µM)	> 32 µg/mL	1 µg/mL (≈ 2.66 µM)	1 µg/mL (≈ 2.66 µM)	1 µg/mL (≈ 2.66 µM)	> 32 µg/mL	CC(=O)NC[C@H]1CN(c2ccc3cccc(-c4ccc(C)cc4)c3n2)C(=O)O1 [Example 59]
